Measured values reported in patent US11311522B1 (Cavion, Inc., priority 2018, dated 2022).

What was measured:
[1] = Off-target panel of enzyme and receptor binding sites, ion channels, transporters; settings: 10 μM, over 170 targets
Pharmacokinetics in dogs = format: in vivo, dog
Protocol: (§2) The validity and reproducibility of the assays were determined, and the precision and accuracy for calibration standards and quality control samples were examined. […] The analytes were stable in plasma under the storage and assay conditions. […] Assay performances were satisfactory and met acceptance criteria for system performance suitability, quantitation range, calibration linearity, assay accuracy and precision, and assay recovery.

[2] = 90-day oral toxicology in Beagle dogs; settings: dog, in vivo; for NOAEL at 90 days: both
in vivo = settings: Beagle, dog, in vivo, po
[3] = 4-week oral toxicology in Beagle dogs
[4] = Pharmacokinetics in rhesus monkeys; format: in vivo, rhesus monkey
Protocol: as §2

[5] = target: T1, breast cancer resistance protein (BCRP) (Homo sapiens, UniProt Q9UNQ0); experiment: BCRP transport; format: in vitro ADME; settings: 30 μM
T1 sequence (Q9UNQ0 1-655): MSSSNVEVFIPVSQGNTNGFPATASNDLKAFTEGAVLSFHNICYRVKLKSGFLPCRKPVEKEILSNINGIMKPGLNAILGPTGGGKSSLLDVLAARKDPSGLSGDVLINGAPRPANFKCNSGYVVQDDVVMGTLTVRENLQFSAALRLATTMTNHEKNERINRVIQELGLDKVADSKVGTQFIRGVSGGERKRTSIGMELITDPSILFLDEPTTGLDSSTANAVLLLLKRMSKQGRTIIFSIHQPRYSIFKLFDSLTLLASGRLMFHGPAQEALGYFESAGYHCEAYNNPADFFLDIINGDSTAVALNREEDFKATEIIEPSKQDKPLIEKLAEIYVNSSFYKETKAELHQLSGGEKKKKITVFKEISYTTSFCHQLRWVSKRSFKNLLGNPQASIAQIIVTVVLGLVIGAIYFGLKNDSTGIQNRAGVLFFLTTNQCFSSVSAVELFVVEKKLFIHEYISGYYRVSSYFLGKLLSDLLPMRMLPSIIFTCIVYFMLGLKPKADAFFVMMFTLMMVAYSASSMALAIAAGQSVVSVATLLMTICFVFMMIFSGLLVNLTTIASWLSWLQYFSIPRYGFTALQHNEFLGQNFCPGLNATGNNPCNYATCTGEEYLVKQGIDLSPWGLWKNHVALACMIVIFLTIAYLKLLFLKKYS
Text: Glucuronide conjugates of the oxygenated metabolites are detected in human, monkey, and dog hepatocyte preparations. […] However, the abundance of CYP3A5, CYP2C19, and CYP2D6 in human liver microsomes is low (2%-5%) relative to the primary contributors, CYP3A4 (˜30%) and CYP2C9 (˜20%). […] Information on reproductive and developmental toxicology was obtained in a 28-day pivotal female fertility study in rats and in preliminary embryo-fetal development studies in rats and rabbits.

[6] = In vitro plasma protein binding, dog; format: in vitro ADME
Text: (§1) CX-8998 distributes readily to the brain in rats and to brain and cerebral spinal fluid (CSF) in dogs.

[7] = In vitro plasma protein binding, monkey; format: in vitro ADME
Text: as §1

[8] = Beagle dog, 4-week toxicity, oral gavage
[9] = Monkey, IV 2 mg/kg, mean (SD), 3 animals

SMILES: CC(C)c1ccc(CC(=O)N[C@H](C)c2ccc(OCC(F)(F)F)cn2)cc1 [CX-8998]
- Off-target effects [1]: No off-target effects
- t½ (Pharmacokinetics in dogs; Dog, IV […], mean (SD), 3 animals): 7.3 (3.1) hr
- F (Pharmacokinetics in dogs; Dog, oral 0.5 mg/kg vs IV […], mean (SD)): 76 (47) %
- Vdss, mean (Pharmacokinetics in dogs; dog, in vivo): 0.8 L/kg
- half-life (Pharmacokinetics in dogs; dog, in vivo): 7.3 h
- bioavailability (Pharmacokinetics in dogs; dog, plasma, po, 0.5 mg/kg, single dose): 76%
- NOAEL at 90 days ([2]; Beagle, po): 30 mg/kg/day
- NOAEL at 90 days ([2]; beagle, oral): 30 mg/kg/day
- AUC ([2]; female, Beagle, po, 10 mg/kg/day): 163 µM·h
- AUC ([2]; female, beagle, po, 30 mg/kg/day): 363 µM·h
- AUC ([2]; male, Beagle, po, 30 mg/kg/day): 335 µM·h
- AUC (in vivo; female, 300 mg/kg/day): 2080 µM·h
- Cmax (in vivo; female, 300 mg/kg/day): 158 µM
- AUC (in vivo; male, 3 mg/kg/day): 62.5 µM·h
- Cmax (in vivo; male, 3 mg/kg/day): 8.4 µM
- Cmax (in vivo; male, 30 mg/kg/day): 73.5 µM
- Cmax (in vivo; male, 300 mg/kg/day): 253 µM
- NOEL [3, 8]: NOEL. 20 mg/kg/day. Dose-limiting
- dose at which dose-limiting toxicity (mortality, physical signs) was observed [3, 8]: observed at 800 mg/kg/day
- NOEL ([3]; dog, in vivo): 20 mg/kg/day
- Safety margin (AUC24) at the NOEL over expected clinical exposure ([3]; dog, in vivo): approximately 30 fold
- CL [4, 9]: 15.9 (2.5) mL/min/kg
- t½ [4, 9]: 1.3 (0.3) hr
- F ([4]; Monkey, oral 20 mg/kg vs IV 2 mg/kg, mean (SD)): 2.8 (10.) %
- Plasma clearance ([4]; rhesus monkey, in vivo): 16 mL/min/kg
- Vdss, mean ([4]; rhesus monkey, in vivo): 0.9 L/kg
- half-life ([4]; rhesus monkey, in vivo): 1.3 h
- Inhibition of BCRP transport [5]: 57%
- fraction unbound ([6]; dog plasma, read-out: In vitro plasma protein binding (converted)): ~0.003
- fraction unbound ([6]; dogs, read-out: free fraction): 0.003
- fraction unbound ([6]; read-out: Free fraction in dog plasma): 0.003
- fraction unbound [7]: ~0.012
